According to PMC9085743, “Identification of oleoylethanolamide as an endogenous ligand for HIF-3α” (Nature Communications, 2022):

Molecular target: T1, HIF-3α (Mus musculus, UniProt Q0VBL6)
T1 construct: gene Hif3a; SPR: MBP-HIF-3α-PAS-B (residues 235-363); crystal: HIF-3α residues 4-358 with ARNT residues 82–464; with ARNT (in the crystal, thermal shift, AS-MS, TR-FRET and HDX-MS; not in SPR)
Assay: co-crystal structure ([…] Å), SPR, thermal shift, AS-MS, HDX-MS
Assay type: binding

T1 sequence (Q0VBL6 235-363): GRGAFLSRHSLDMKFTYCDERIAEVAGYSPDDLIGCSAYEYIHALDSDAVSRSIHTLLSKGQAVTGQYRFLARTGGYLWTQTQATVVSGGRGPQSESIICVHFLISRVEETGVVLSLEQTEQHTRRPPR

- Kd: ~14 µM
SMILES: CCCCCCCC/C=C\CCCCCCCC(=O)NCCO [OEA, oleoylethanolamide]
